Source: the supplement of paper PMC11451515

System: NOMO1
Test: cell viability relative to DMSO control; higher = less cytotoxic
Conditions: 48 h
Outline: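 Viability, reported as a per-plate percentage of DMSO wells with cell-free wells as background, came from CellTiter-Glo One luminescence. Reading took place after 48 h at 37°C. Before that, NOMO1 or SEM (500 cells/well) or P12-Ichikawa (1000 cells/well) leukemia cells, adapted for at least four passages in each medium, were seeded in 1536-well plates (5 μl) and pin-dosed with library compounds in DMSO, 47 μM to 0.79 nM over 11 threefold points.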

[1] = HPLM + 10% dialyzed FBS, 0.000781 µM
[2] = HPLM + 10% dialyzed FBS, 0.00234 µM
[3] = HPLM + 10% dialyzed FBS, 0.00702 µM
[4] = HPLM + 10% dialyzed FBS, 0.0211 µM
[5] = HPLM + 10% dialyzed FBS, 0.0632 µM
[6] = HPLM + 10% dialyzed FBS, 0.19 µM
[7] = HPLM + 10% dialyzed FBS, 0.569 µM
[8] = HPLM + 10% dialyzed FBS, 1.71 µM
[9] = HPLM + 10% dialyzed FBS, 5.12 µM
[10] = HPLM + 10% dialyzed FBS, 15.4 µM
[11] = HPLM + 10% dialyzed FBS, 46.1 µM
[12] = RPMI 5 mM glucose + 10% FBS, 0.000781 µM
[13] = RPMI 5 mM glucose + 10% FBS, 0.00234 µM
[14] = RPMI 5 mM glucose + 10% FBS, 0.00702 µM
[15] = RPMI 5 mM glucose + 10% FBS, 0.0211 µM
[16] = RPMI 5 mM glucose + 10% FBS, 0.0632 µM
[17] = RPMI 5 mM glucose + 10% FBS, 0.19 µM
[18] = RPMI 5 mM glucose + 10% FBS, 0.569 µM
[19] = RPMI 5 mM glucose + 10% FBS, 1.71 µM
[20] = RPMI 5 mM glucose + 10% FBS, 5.12 µM
[21] = RPMI 5 mM glucose + 10% FBS, 15.4 µM
[22] = RPMI 5 mM glucose + 10% FBS, 46.1 µM
[23] = RPMI 5 mM glucose + 10% dialyzed FBS, 0.000781 µM
[24] = RPMI 5 mM glucose + 10% dialyzed FBS, 0.00234 µM
[25] = RPMI 5 mM glucose + 10% dialyzed FBS, 0.00702 µM
[26] = RPMI 5 mM glucose + 10% dialyzed FBS, 0.0211 µM
[27] = RPMI 5 mM glucose + 10% dialyzed FBS, 0.0632 µM
[28] = RPMI 5 mM glucose + 10% dialyzed FBS, 0.19 µM
[29] = RPMI 5 mM glucose + 10% dialyzed FBS, 0.569 µM
[30] = RPMI 5 mM glucose + 10% dialyzed FBS, 1.71 µM
[31] = RPMI 5 mM glucose + 10% dialyzed FBS, 5.12 µM
[32] = RPMI 5 mM glucose + 10% dialyzed FBS, 15.4 µM
[33] = RPMI 5 mM glucose + 10% dialyzed FBS, 46.1 µM

Compound | cell viability [1] | cell viability [2] | cell viability [3] | cell viability [4] | cell viability [5] | cell viability [6] | cell viability [7] | cell viability [8] | cell viability [9] | cell viability [10] | cell viability [11] | cell viability [12] | cell viability [13] | cell viability [14] | cell viability [15] | cell viability [16] | cell viability [17] | cell viability [18] | cell viability [19] | cell viability [20] | cell viability [21] | cell viability [22] | cell viability [23] | cell viability [24] | cell viability [25] | cell viability [26] | cell viability [27] | cell viability [28] | cell viability [29] | cell viability [30] | cell viability [31] | cell viability [32] | cell viability [33]
C[C@H](CCC(=O)O)[C@H]1CCC2C3C[C@H](O)[C@@H]4C[C@H](O)CC[C@]4(C)C3CC[C@@]21C (stereo partly specified) | 112% | 123% | 139% | 133% | 119% | 121% | 97.6% | 104% | 114% | 123% | 110% | 113% | 106% | 121% | 119% | 119% | 116% | 96.7% | 106% | 113% | 108% | 103% | 102% | 126% | 118% | 108% | 122% | 109% | 107% | 94.7% | 116% | 105% | 110%
CCC(C)N1\N=C/N(C1=O)C2=CC=C(C=C2)N3CCN(CC3)C4=CC=C(OC[C@H]5CO[C@@](C[N]6C=NC=N6)(O5)C7=CC=C(Cl)C=C7Cl)C=C4 (stereo partly specified) | 110% | 98.9% | 117% | 121% | 122% | 97.2% | 108% | 102% | 107% | 90.4% | 86% | 101% | 108% | 113% | 99.6% | 111% | 121% | 93.9% | 101% | 102% | 95.3% | 85.8% | 102% | 104% | 119% | 124% | 111% | 113% | 120% | 103% | 98.9% | 99.6% | 86.2%
C[C@@H]1CCN(C(=O)CC#N)C[C@@H]1N(C)c1ncnc2[nH]ccc12 | 93.6% | 81.7% | 91.7% | 84.4% | 97.6% | 77.1% | 94.7% | 76.3% | 83.6% | 81.9% | 73.6% | 97.2% | 84.6% | 83.3% | 75.8% | 77.8% | 72% | 73.4% | 71.8% | 81.6% | 80.9% | 75.7% | 89% | 89.1% | 84.9% | 88.4% | 87.5% | 80.7% | 69.3% | 101% | 91.9% | 88.4% | 84.7%
CC1(CN2CCC(n3c(=O)[nH]c4ccccc43)CC2)OCc2ccccc2-n2cccc21 (stereo unspecified) | 128% | 108% | 102% | 105% | 96.8% | 105% | 104% | 108% | 102% | 59.3% | 75.6% | 86.7% | 103% | 95.4% | 91.4% | 104% | 107% | 91.3% | 96% | 92.5% | 87.8% | 84% | 105% | 111% | 103% | 93.2% | 96.7% | 98.2% | 95.9% | 92.4% | 90.9% | 79.5% | 68.5%
CCOC(=O)[C@@]1(CCCCCCOc2ccc(Cl)cc2)CO1 | – | – | – | – | – | – | – | – | – | – | – | 120% | 118% | 109% | 107% | 108% | 115% | 106% | 106% | 96.5% | 86.7% | 48.1% | 117% | 117% | 114% | 112% | 111% | 111% | 113% | 108% | 107% | 96% | 56.8%
C=C1C(=O)OC(CCCCCCCC)C1C(=O)O (stereo unspecified) | 107% | 125% | 123% | 135% | 135% | 139% | 130% | 125% | 104% | 136% | 118% | 113% | 114% | 112% | 122% | 131% | 127% | 119% | 132% | 129% | 127% | 124% | 109% | 123% | 113% | 130% | 135% | 136% | 125% | 120% | 121% | 129% | 120%
Cc1nn(C)c(COc2ccc(N3CCN([S+](=O)([O-])N(C)C)CC3)cc2)c1-c1cccc2c(CCCOc3cccc4ccccc34)c(C(=O)O)n(CCN3CCOCC3)c12 | 96.9% | 107% | 121% | 122% | 124% | 108% | 137% | 101% | 25.9% | 36.8% | 32.1% | 100% | 110% | 105% | 110% | 112% | 105% | 118% | 111% | 25.2% | 108% | 22.8% | 90.6% | 112% | 110% | 116% | 122% | 111% | 117% | 107% | 109% | 119% | 91.8%
N#Cc1ccc(Oc2ccc3c(c2)COB3O)cc1 | – | – | – | – | – | – | – | – | – | – | – | 122% | 132% | 119% | 120% | 150% | 137% | 144% | 126% | 133% | 129% | 57.3% | – | – | – | – | – | – | – | – | – | – | –
